Assay results published in the supplement of paper PMC10307832.

Tests used:
Assay in all cases: relative viability (nuclei count vs DMSO), 5 days (fraction); higher = more cells survive
[1] = compound: COC1=CC=C(C=C1)CN2C=CC3=C2C=C(C=C3)C(=O)NO
How it was run: (§1)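 Vehicle-anchored 1536-well plates of lung cancer cell lines, held overnight at 37 °C, were pinned with five library-drug doses (not always all listed) spaced by √10. No medium change followed over the next 5 days, after which the cells were fixed, permeabilised and Hoechst-stained together and imaged at 4×. Nuclei were counted with MetaXpress, and viability is treated-well nuclei over vehicle-well nuclei, taken as a median across plates. Plates passed with control CV below 25% and at least one doubling.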

Veliparib = compound: C[C@]1(c2nc3c(C(N)=O)cccc3[nH]2)CCCN1 [Veliparib]
How it was run: as §1

[2] = compound: COC1=CC=C(C=C1)CN2C=CC3=C2C=C(C=C3)C(=O)NO + CC(=O)Nc1cccc(-n2c(=O)n(C3CC3)c(=O)c3c(Nc4ccc(I)cc4F)n(C)c(=O)c(C)c32)c1 [Trametinib] (partner 0.02 µM)
How it was run: (§2)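 The day after seeding in 1536-well plates, lung cancer cell lines were treated by pin tool with a single drug, or with a fixed anchor-drug dose together with five library-drug doses (not always all listed) in √10 steps. After 5 days, a combined fix-and-stain solution (final 0.05% Triton X-100, 1% formaldehyde, 1 ug/ml Hoechst) was added. Nuclei counted on 4× images gave relative viability as treated counts over vehicle counts, reported as the median of duplicate plates.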

Veliparib + Navitoclax = compound: C[C@]1(c2nc3c(C(N)=O)cccc3[nH]2)CCCN1 [Veliparib] + CC1(C)CCC(c2ccc(Cl)cc2)=C(CN2CCN(c3ccc(C(=O)NS(=O)(=O)c4ccc(N[C@H](CCN5CCOCC5)CSc5ccccc5)c(S(=O)(=O)C(F)(F)F)c4)cc3)CC2)C1 [Navitoclax] (partner 0.5 µM)
How it was run: as §2

| Cell Line | relative viability ([1]; 0.08 µM) | relative viability ([1]; 0.253 µM) | relative viability ([1]; 0.8 µM) | relative viability ([1]; 2.53 µM) | relative viability ([1]; 8 µM) | relative viability (Veliparib; 0.02 µM) | relative viability (Veliparib; 0.06325 µM) | relative viability (Veliparib; 0.2 µM) | relative viability (Veliparib; 0.6325 µM) | relative viability (Veliparib; 2 µM) | relative viability ([2]; first compound 0.08 µM) | relative viability ([2]; first compound 0.253 µM) | relative viability ([2]; first compound 0.8 µM) | relative viability ([2]; first compound 2.53 µM) | relative viability ([2]; first compound 8 µM) | relative viability (Veliparib + Navitoclax; first compound 0.02 µM) | relative viability (Veliparib + Navitoclax; first compound 0.06325 µM) | relative viability (Veliparib + Navitoclax; first compound 0.2 µM) | relative viability (Veliparib + Navitoclax; first compound 0.6325 µM) | relative viability (Veliparib + Navitoclax; first compound 2 µM) |
| --- | --- | --- | --- | --- | --- | --- | --- | --- | --- | --- | --- | --- | --- | --- | --- | --- | --- | --- | --- | --- |
| HCC-366 | 0.791 | 0.993 | 0.973 | 0.964 | 1.01 | 1.03 | 0.992 | 1 | 1.01 | 1.03 | 0.293 | 0.28 | 0.328 | 0.295 | 0.333 | 1.09 | 1.01 | 0.968 | 0.942 | 1.1 |
| NCI-H1975 | 0.862 | 0.976 | 0.923 | 0.979 | 0.872 | 1.03 | 0.876 | 0.903 | 0.884 | 0.861 | 0.308 | 0.348 | 0.359 | 0.413 | 0.349 | 1.07 | 1.14 | 1.22 | 0.942 | 0.981 |
| NCI-H460 | 0.902 | 1 | 0.994 | 0.992 | 0.968 | 0.93 | 0.952 | 0.967 | 0.931 | 0.964 | 0.157 | 0.123 | 0.153 | 0.178 | 0.0809 |  | 1.02 | 1.06 | 1.03 | 1.12 |
| NCI-H2170 | 0.973 | 0.994 | 0.977 | 0.98 | 0.906 | 0.989 | 0.954 | 0.967 | 0.96 | 0.991 | 0.888 | 0.931 | 0.867 | 0.897 | 0.865 | 0.544 | 0.531 | 0.597 | 0.618 | 0.606 |
| NCI-H1355 | 0.814 | 0.996 | 0.987 | 0.995 | 0.874 |  | 0.835 | 1.03 | 0.943 | 0.944 | 0.42 | 0.433 | 0.403 | 0.473 | 0.44 |  | 0.872 | 0.9 | 0.904 | 0.971 |
| NCI-H1755 | 0.869 | 1.03 | 0.965 | 0.993 | 0.973 | 1.02 | 0.957 | 1.02 | 0.913 | 0.963 | 0.711 | 0.77 | 0.791 | 0.758 | 0.753 | 1.02 | 0.946 | 0.939 | 0.925 | 0.967 |
| HCC-78 | 0.803 | 0.876 | 1.01 | 1.02 | 0.917 | 0.987 | 0.829 | 0.949 | 0.828 | 0.888 | 0.671 | 0.807 | 0.634 | 0.798 | 0.613 | 0.892 | 0.77 | 0.881 | 0.646 | 0.648 |
| NCI-H2405 | 0.908 | 0.934 | 1 | 1.06 | 0.913 | 0.973 | 0.89 | 1.01 | 1 | 0.691 | 0.544 |  | 0.641 | 0.686 | 0.625 |  | 0.734 | 0.847 | 0.833 | 0.69 |
| NCI-H2085 | 1.01 | 0.991 | 1.04 | 0.996 | 0.968 | 0.851 | 0.999 | 0.983 | 0.922 | 1.01 | 0.528 | 0.665 | 0.692 | 0.524 | 0.406 | 1.13 | 0.984 | 1.15 | 0.932 | 1.11 |
| LXF-289 |  | 1.01 | 1 | 0.992 | 0.992 | 0.996 | 0.992 | 1.03 | 0.941 | 1 |  | 0.698 | 0.712 | 0.677 | 0.677 | 0.932 | 0.948 | 0.931 | 0.888 | 0.968 |
| NCI-H1650 | 0.787 | 0.87 | 1.01 | 0.946 | 0.689 |  | 0.846 | 1.01 | 0.875 | 0.874 | 0.543 | 0.595 | 0.645 | 0.624 | 0.539 |  | 0.93 | 1.19 | 1.08 | 1.32 |
| EPLC-272H | 0.753 | 0.871 | 1 | 0.974 | 0.766 |  | 0.855 | 1.02 | 1.01 | 0.938 |  | 0.314 | 0.297 | 0.308 | 0.238 |  | 1.08 | 0.999 | 1.22 | 1.16 |
| NCI-H647 | 0.754 | 0.909 | 1.02 | 0.989 | 0.869 | 1.02 | 0.945 | 1.03 | 0.813 | 1.03 | 0.481 | 0.365 | 0.493 | 0.669 | 0.439 | 1.13 | 1.14 | 1.14 | 1.03 | 1.1 |
| NCI-H2347 | 0.911 | 1.06 | 1.1 | 1.17 | 0.974 | 1.08 | 0.936 | 0.94 | 0.971 | 0.898 | 0.268 | 0.313 | 0.303 | 0.283 | 0.235 | 0.794 | 0.775 | 0.724 | 0.695 | 0.729 |
| NCI-H1792 | 0.952 | 0.883 | 0.99 | 0.766 | 0.795 | 0.825 | 0.694 | 0.943 | 0.966 | 0.718 | 0.459 | 0.426 | 0.394 | 0.379 | 0.423 | 0.589 | 0.5 | 0.67 | 0.616 | 0.564 |
| A-427 |  | 0.98 | 1.01 | 0.952 | 0.806 | 0.781 | 0.995 | 0.943 | 0.939 | 0.841 | 0.346 |  | 0.813 | 0.781 | 0.675 | 1.05 | 0.795 | 0.93 | 0.938 | 0.893 |
